Assay results taken from paper PMC7096398, “Oxytocin Receptors Regulate Social Preference in Zebrafish” (Scientific Reports, 2020).
Entries after “also recorded” stand apart in the source; their conditions may differ.

What was measured:
[1] = target: T1, Avpr1aa (Danio rerio, UniProt A0A8M1P1H3); test: Inositol phosphate accumulation assay, antagonism of 1 μM zVP at Avpr1aa; format: cell-based, zebrafish; details: stimulated with agonist; antagonist up to 1 μM
T1 sequence (A0A8M1P1H3 1-379): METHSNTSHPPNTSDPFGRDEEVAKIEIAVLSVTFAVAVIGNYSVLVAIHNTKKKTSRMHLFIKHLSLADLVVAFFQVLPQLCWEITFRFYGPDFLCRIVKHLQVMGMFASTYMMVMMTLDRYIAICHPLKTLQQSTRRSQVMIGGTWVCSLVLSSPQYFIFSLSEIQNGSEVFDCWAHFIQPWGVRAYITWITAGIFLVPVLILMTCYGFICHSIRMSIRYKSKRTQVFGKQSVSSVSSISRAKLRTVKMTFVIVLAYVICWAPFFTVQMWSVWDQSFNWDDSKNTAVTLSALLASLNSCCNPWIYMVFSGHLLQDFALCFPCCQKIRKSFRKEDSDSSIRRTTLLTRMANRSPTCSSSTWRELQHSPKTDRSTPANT
Procedure: (§1) The receptor constructs were ordered from GeneScript and subcloned into a pcDNA3.1/CT-GFP-TOPO vector. The coding sequences of the GenBank entries NM_001199370.1 (oxtr), NM_001199369.1 (oxtrl), NM_001301114.1 (avpr1aa), and NM_001297676.1 (avpr1ab) were used for synthesis. The stop codons were removed, and an additional […] was added to facilitate hybrid protein expression with GFP in frame from the vector. The GCCACC Kozak sequence was inserted before the start codons. After transformation of the plasmid constructs into TOP10 competent cells (Thermo Fisher Scientific), the Maxiprep (Thermo Fisher Scientific) method was used to amplify the plasmids for transfection.
(§2) The Inositol phosphate accumulation assay was performed according to previous descriptions to measure the potency of different ligands for zebrafish different oxytocin related receptors. Each receptor construct was transfected into HEK293 cells using Lipofectamine 2000 (Thermo Fisher Scientific). Myo2-^3H-inositol (PerkinElmer) at 3 μCi/mL was added the day after transfection. […] Samples were mixed with OptiPhase HiSafe (PerkinElmer Waltham, MA, USA) and ^3H radioactivity was measured with a Tri-Carb 2910TR liquid scintillation counter (PerkinElmer Waltham, MA, USA). […]

[2] = target: T2, Avpr1ab (Danio rerio, UniProt A0A8M1P6E3); test: Inositol phosphate accumulation assay, antagonism of 1 μM zVP at Avpr1ab; format: cell-based, zebrafish; details: stimulated with agonist; antagonist up to 1 μM
T2 sequence (A0A8M1P6E3 1-410): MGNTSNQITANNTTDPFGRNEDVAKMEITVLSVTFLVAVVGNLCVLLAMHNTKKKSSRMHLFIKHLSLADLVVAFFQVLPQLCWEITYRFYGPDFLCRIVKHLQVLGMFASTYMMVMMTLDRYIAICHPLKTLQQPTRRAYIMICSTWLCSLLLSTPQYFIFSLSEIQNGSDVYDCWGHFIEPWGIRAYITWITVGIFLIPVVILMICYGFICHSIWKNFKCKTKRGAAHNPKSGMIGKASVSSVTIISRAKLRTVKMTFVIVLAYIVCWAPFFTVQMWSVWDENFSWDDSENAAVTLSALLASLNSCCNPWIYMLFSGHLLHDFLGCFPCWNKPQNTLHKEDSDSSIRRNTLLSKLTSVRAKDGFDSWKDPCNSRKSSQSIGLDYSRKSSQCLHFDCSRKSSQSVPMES
Procedure: as §1, §2

[3] = test system: OT receptor; details: cited from earlier work
Excerpt: Intriguingly, the non-peptidergic OT receptor antagonist L-368,8 ...

[4] = target: T3, Oxtrl (Danio rerio, UniProt E4W698); test: Inositol phosphate accumulation assay, antagonism of 1 μM zVP at Oxtrl; format: cell-based, zebrafish; details: stimulated with zVP
T3 construct: host or cells: HEK293
T3 sequence (E4W698 1-382): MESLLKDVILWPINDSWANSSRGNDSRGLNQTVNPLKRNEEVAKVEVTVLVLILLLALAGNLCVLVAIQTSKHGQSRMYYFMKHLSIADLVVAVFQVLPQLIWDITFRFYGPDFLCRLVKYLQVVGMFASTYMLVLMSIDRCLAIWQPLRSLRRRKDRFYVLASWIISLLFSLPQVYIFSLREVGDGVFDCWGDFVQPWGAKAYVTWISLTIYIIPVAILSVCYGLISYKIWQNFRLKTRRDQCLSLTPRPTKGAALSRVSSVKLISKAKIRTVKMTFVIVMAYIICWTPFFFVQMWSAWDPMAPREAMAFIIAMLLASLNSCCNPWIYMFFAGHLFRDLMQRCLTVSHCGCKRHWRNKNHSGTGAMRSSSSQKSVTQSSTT
Procedure: as §1, §2

Cc1ccccc1N1CCN(S(=O)(=O)C[C@]23CC[C@H](C[C@@H]2NC(=O)[C@@H](N)CCS(C)(=O)=O)C3(C)C)CC1 [L-368,899]
Antagonism at Avpr1aa, in words [1]: did not block the response; also recorded: without reducing the effect of the peptide agonist | Antagonism at Avpr1ab, in words [2]: did not block the response and not and without reducing the effect of the peptide agonist | Inhibition of the OT receptor in mammals [3]: specifically inhibit the mammalian OT receptor | Antagonism at Oxtrl, in words [4]: able to block zVP activation; also recorded: specifically inhibited; also recorded: potently antagonised
